From the NIST ThermoML archive (doi:10.1021/je049572f)
± gives the expanded uncertainty stated by the source.

Assay: xn = mol fraction of the nth substance listed
Details: 101.33 kPa, Liquid

Compound: CCc1ccccc1 [ethylbenzene] + CN1CCCC1=O
- mass density (303.15 K, x1 = 0.094): 1006.25 ± 2.8 kg/m3
- viscosity (303.15 K, x1 = 0.094): 1.415 ± 0.047 mPa·s
- mass density (303.15 K, x1 = 0.1901): 989.43 ± 2.6 kg/m3
- viscosity (303.15 K, x1 = 0.1901): 1.301 ± 0.041 mPa·s
- mass density (303.15 K, x1 = 0.2859): 972.61 ± 2.6 kg/m3
- viscosity (303.15 K, x1 = 0.2859): 1.188 ± 0.037 mPa·s
- mass density (303.15 K, x1 = 0.3839): 955.98 ± 2.6 kg/m3
- viscosity (303.15 K, x1 = 0.3839): 1.081 ± 0.032 mPa·s
- mass density (303.15 K, x1 = 0.4839): 939.38 ± 2.7 kg/m3
- viscosity (303.15 K, x1 = 0.4839): 0.975 ± 0.028 mPa·s
- mass density (303.15 K, x1 = 0.5835): 923.22 ± 2.8 kg/m3
- viscosity (303.15 K, x1 = 0.5835): 0.884 ± 0.025 mPa·s
- mass density (303.15 K, x1 = 0.6854): 906.91 ± 2.9 kg/m3
- viscosity (303.15 K, x1 = 0.6854): 0.796 ± 0.022 mPa·s
- mass density (303.15 K, x1 = 0.7888): 890.73 ± 3.1 kg/m3
- viscosity (303.15 K, x1 = 0.7888): 0.722 ± 0.02 mPa·s
- mass density (303.15 K, x1 = 0.8937): 874.71 ± 3.3 kg/m3
- viscosity (303.15 K, x1 = 0.8937): 0.66 ± 0.018 mPa·s
- mass density (303.15 K, x1 = 1): 859.95 ± 3.6 kg/m3
- viscosity (303.15 K, x1 = 1): 0.598 ± 0.016 mPa·s
- mass density (313.15 K, x1 = 0.094): 997.35 ± 2.7 kg/m3
- viscosity (313.15 K, x1 = 0.094): 1.216 ± 0.041 mPa·s
- mass density (313.15 K, x1 = 0.1901): 980.53 ± 2.7 kg/m3
- viscosity (313.15 K, x1 = 0.1901): 1.124 ± 0.036 mPa·s
- mass density (313.15 K, x1 = 0.2859): 963.71 ± 2.7 kg/m3
- viscosity (313.15 K, x1 = 0.2859): 1.033 ± 0.032 mPa·s
- mass density (313.15 K, x1 = 0.3839): 947.11 ± 2.7 kg/m3
- viscosity (313.15 K, x1 = 0.3839): 0.94 ± 0.028 mPa·s
- mass density (313.15 K, x1 = 0.4839): 930.52 ± 2.8 kg/m3
- viscosity (313.15 K, x1 = 0.4839): 0.846 ± 0.025 mPa·s
- mass density (313.15 K, x1 = 0.5835): 914.35 ± 2.9 kg/m3
- viscosity (313.15 K, x1 = 0.5835): 0.772 ± 0.022 mPa·s
- mass density (313.15 K, x1 = 0.6854): 898.04 ± 3.1 kg/m3
- viscosity (313.15 K, x1 = 0.6854): 0.705 ± 0.02 mPa·s
- mass density (313.15 K, x1 = 0.7888): 881.86 ± 3.3 kg/m3
- viscosity (313.15 K, x1 = 0.7888): 0.643 ± 0.018 mPa·s
- mass density (313.15 K, x1 = 0.8937): 865.85 ± 3.5 kg/m3
- viscosity (313.15 K, x1 = 0.8937): 0.588 ± 0.016 mPa·s
- mass density (313.15 K, x1 = 1): 851.14 ± 3.7 kg/m3
- viscosity (313.15 K, x1 = 1): 0.537 ± 0.015 mPa·s
- mass density (323.15 K, x1 = 0.094): 988.46 ± 2.8 kg/m3
- viscosity (323.15 K, x1 = 0.094): 1.057 ± 0.036 mPa·s
- mass density (323.15 K, x1 = 0.1901): 971.63 ± 2.7 kg/m3
- viscosity (323.15 K, x1 = 0.1901): 0.982 ± 0.032 mPa·s
- mass density (323.15 K, x1 = 0.2859): 954.81 ± 2.8 kg/m3
- viscosity (323.15 K, x1 = 0.2859): 0.904 ± 0.028 mPa·s
- mass density (323.15 K, x1 = 0.3839): 938.2 ± 2.8 kg/m3
- viscosity (323.15 K, x1 = 0.3839): 0.829 ± 0.025 mPa·s
- mass density (323.15 K, x1 = 0.4839): 921.64 ± 2.9 kg/m3
- viscosity (323.15 K, x1 = 0.4839): 0.75 ± 0.022 mPa·s
- mass density (323.15 K, x1 = 0.5835): 905.4 ± 3 kg/m3
- viscosity (323.15 K, x1 = 0.5835): 0.688 ± 0.02 mPa·s
- mass density (323.15 K, x1 = 0.6854): 889.1 ± 3.2 kg/m3
- viscosity (323.15 K, x1 = 0.6854): 0.629 ± 0.018 mPa·s
- mass density (323.15 K, x1 = 0.7888): 873 ± 3.4 kg/m3
- viscosity (323.15 K, x1 = 0.7888): 0.576 ± 0.016 mPa·s
- mass density (323.15 K, x1 = 0.8937): 856.9 ± 3.6 kg/m3
- viscosity (323.15 K, x1 = 0.8937): 0.525 ± 0.015 mPa·s
- mass density (323.15 K, x1 = 1): 842.3 ± 3.8 kg/m3
- viscosity (323.15 K, x1 = 1): 0.483 ± 0.014 mPa·s
- mass density (333.15 K, x1 = 0.094): 979.51 ± 2.9 kg/m3
- viscosity (333.15 K, x1 = 0.094): 0.932 ± 0.032 mPa·s
- mass density (333.15 K, x1 = 0.1901): 962.67 ± 2.8 kg/m3
- viscosity (333.15 K, x1 = 0.1901): 0.868 ± 0.028 mPa·s
- mass density (333.15 K, x1 = 0.2859): 945.85 ± 2.8 kg/m3
- viscosity (333.15 K, x1 = 0.2859): 0.801 ± 0.025 mPa·s
- mass density (333.15 K, x1 = 0.3839): 929.24 ± 2.9 kg/m3
- viscosity (333.15 K, x1 = 0.3839): 0.735 ± 0.023 mPa·s
- mass density (333.15 K, x1 = 0.4839): 912.7 ± 3 kg/m3
- viscosity (333.15 K, x1 = 0.4839): 0.671 ± 0.02 mPa·s
- mass density (333.15 K, x1 = 0.5835): 896.46 ± 3.2 kg/m3
- viscosity (333.15 K, x1 = 0.5835): 0.618 ± 0.018 mPa·s
- mass density (333.15 K, x1 = 0.6854): 880.17 ± 3.4 kg/m3
- viscosity (333.15 K, x1 = 0.6854): 0.565 ± 0.016 mPa·s
- mass density (333.15 K, x1 = 0.7888): 864 ± 3.5 kg/m3
- viscosity (333.15 K, x1 = 0.7888): 0.52 ± 0.015 mPa·s
- mass density (333.15 K, x1 = 0.8937): 847.93 ± 3.8 kg/m3
- viscosity (333.15 K, x1 = 0.8937): 0.474 ± 0.014 mPa·s
- mass density (333.15 K, x1 = 1): 833.34 ± 4 kg/m3
- viscosity (333.15 K, x1 = 1): 0.437 ± 0.013 mPa·s
- mass density (343.15 K, x1 = 0.094): 970.56 ± 2.9 kg/m3
- viscosity (343.15 K, x1 = 0.094): 0.833 ± 0.029 mPa·s
- mass density (343.15 K, x1 = 0.1901): 953.71 ± 2.9 kg/m3
- viscosity (343.15 K, x1 = 0.1901): 0.774 ± 0.026 mPa·s
- mass density (343.15 K, x1 = 0.2859): 936.87 ± 3 kg/m3
- viscosity (343.15 K, x1 = 0.2859): 0.714 ± 0.023 mPa·s
- mass density (343.15 K, x1 = 0.3839): 920.25 ± 3 kg/m3
- viscosity (343.15 K, x1 = 0.3839): 0.658 ± 0.021 mPa·s
- mass density (343.15 K, x1 = 0.4839): 903.71 ± 3.1 kg/m3
- viscosity (343.15 K, x1 = 0.4839): 0.603 ± 0.018 mPa·s
- mass density (343.15 K, x1 = 0.5835): 887.45 ± 3.3 kg/m3
- viscosity (343.15 K, x1 = 0.5835): 0.559 ± 0.017 mPa·s
- mass density (343.15 K, x1 = 0.6854): 871.13 ± 3.5 kg/m3
- viscosity (343.15 K, x1 = 0.6854): 0.514 ± 0.015 mPa·s
- mass density (343.15 K, x1 = 0.7888): 854.97 ± 3.7 kg/m3
- viscosity (343.15 K, x1 = 0.7888): 0.472 ± 0.014 mPa·s
- mass density (343.15 K, x1 = 0.8937): 838.91 ± 3.9 kg/m3
- viscosity (343.15 K, x1 = 0.8937): 0.43 ± 0.013 mPa·s
- mass density (343.15 K, x1 = 1): 824.26 ± 4.1 kg/m3
- viscosity (343.15 K, x1 = 1): 0.397 ± 0.012 mPa·s
- mass density (353.15 K, x1 = 0.094): 961.56 ± 3 kg/m3
- viscosity (353.15 K, x1 = 0.094): 0.746 ± 0.026 mPa·s
- mass density (353.15 K, x1 = 0.1901): 944.7 ± 3 kg/m3
- viscosity (353.15 K, x1 = 0.1901): 0.695 ± 0.023 mPa·s
- mass density (353.15 K, x1 = 0.2859): 927.86 ± 3 kg/m3
- viscosity (353.15 K, x1 = 0.2859): 0.643 ± 0.021 mPa·s
- mass density (353.15 K, x1 = 0.3839): 911.2 ± 3.1 kg/m3
- viscosity (353.15 K, x1 = 0.3839): 0.596 ± 0.019 mPa·s
- mass density (353.15 K, x1 = 0.4839): 894.64 ± 3.3 kg/m3
- viscosity (353.15 K, x1 = 0.4839): 0.547 ± 0.017 mPa·s
- mass density (353.15 K, x1 = 0.5835): 878.35 ± 3.4 kg/m3
- viscosity (353.15 K, x1 = 0.5835): 0.505 ± 0.016 mPa·s
- mass density (353.15 K, x1 = 0.6854): 862.01 ± 3.6 kg/m3
- viscosity (353.15 K, x1 = 0.6854): 0.468 ± 0.014 mPa·s
- mass density (353.15 K, x1 = 0.7888): 845.86 ± 3.8 kg/m3
- viscosity (353.15 K, x1 = 0.7888): 0.43 ± 0.013 mPa·s
- mass density (353.15 K, x1 = 0.8937): 829.76 ± 4.1 kg/m3
- viscosity (353.15 K, x1 = 0.8937): 0.391 ± 0.012 mPa·s
- mass density (353.15 K, x1 = 1): 815.18 ± 4.3 kg/m3
- viscosity (353.15 K, x1 = 1): 0.366 ± 0.012 mPa·s
